Tests used:
EML4-ALK WT = test system: T1, EML4-ALK WT; assay: cells; set-up: CellTiter-Glo viability of Ba/F3 cells dependent on EML4-ALK, without IL-3; conditions: Ba/F3 EML4-ALK, 72 h
T1 construct: EML4-ALK fusion, wild-type kinase domain, expressed in Ba/F3 cells
Protocol: To identify drugs that can overcome these mutations, we screened our focused 90-inhibitor library using Ba/F3 cells expressing EML4-ALK I1171N + F1174I and I1171N + L1198H. At a concentration of 50 nM, gilteritinib suppressed the viability of both wild-type (WT) and compound mutant Ba/F3 cells (Fig. 1a). Since gilteritinib has reported as multi-kinase inhibitor, we first evaluated whether the ALK inhibitory efficacy of gilteritinib is driven by on-target activity or not. As a result of western blot analysis, gilteritinib suppressed the autophosphorylation of ALK in EML4-ALK-expressing Ba/F3 cells (Fig. 1b and Supplementary Fig. 1). […] As well as Ba/F3 cell model, we verified the activity of gilteritinib to H3122 cell line that is EML4-ALK-positive NSCLC cells. […] Then, the inhibitory concentration of gilteritinib is matched between ALK phosphorylation and its downstream signals. […] Further, using the phosphoproteomics data, kinase substrate-enrichment analysis (KSEA) predicted activate kinase candidates as potential gilteritinib targets and identified ALK as the most likely regulated protein (Fig. 1e, Supplementary Figs. 3 and 4, and Supplementary Table 2). To establish Ba/F3 cells expression WT or mutant EML4-ALK, TPM3-NTRK1, and CD74-ROS1 fusion proteins, pLenti6.3 vectors containing the cDNA of these fusion oncogenes were transfected into 293FT cells using packaging plasmids (ViraPower) for lentivirus production. Ba/F3 cells were infected using lentivirus-containing medium supplemented with polybrene (8 μg/ml), and after 24 h of incubation, the infected cells were selected using 7 μg/ml blasticidin (Invitrogen) for 1 week. After selection, each EML4-ALK-, TPM3-NTRK1-, and CD74-ROS1-expressing cell line was cultured in D-10 without IL-3. […] To stablise H3122, JFCR-028-3, MCC-003 cells expression WT or mutant EML4-ALK, KRAS G12C, cells were infected using lentivirus-containing medium supplemented with polybrene (8 μg/ml). After 24 h of incubation, the infected cells were selected using 7 μg/ml blasticidin for H3122, JFCR028-3, and 10 μg/ml for MCC-003, respectively. To stablise H3122 cells expression AXL, pHAGE-AXL vector (purchased from addgene) was transfected into 293FT cells using packaging plasmids for lentivirus production. H3122 cells were infected using lentivirus-containing medium supplemented with polybrene (8 μg/ml), and after 24 h of incubation, EGFP-positive cells were sorted using FACSMelody (BD Bioscience, San Jose, CA, USA). To stablise NIH3T3 oncogene-expressing cells, cells were infected using lentivirus-containing medium supplemented with polybrene (8 μg/ml), and after 24 h of incubation, the infected cells were selected using 2 μg/ml blasticidin for 1 week.

in vitro = assay: in vitro; set-up: CellTiter-Glo viability of parental Ba/F3 cells with IL-3 (counter-screen); conditions: mouse, parental ba/f3 cells +il-3; with IL-3; read-out: IC50 parental Ba/F3 (+IL-3)
Protocol: To identify drugs that can overcome these mutations, we screened our focused 90-inhibitor library using Ba/F3 cells expressing EML4-ALK I1171N + F1174I and I1171N + L1198H. At a concentration of 50 nM, gilteritinib suppressed the viability of both wild-type (WT) and compound mutant Ba/F3 cells (Fig. 1a). Since gilteritinib has reported as multi-kinase inhibitor, we first evaluated whether the ALK inhibitory efficacy of gilteritinib is driven by on-target activity or not. As a result of western blot analysis, gilteritinib suppressed the autophosphorylation of ALK in EML4-ALK-expressing Ba/F3 cells (Fig. 1b and Supplementary Fig. 1). […] As well as Ba/F3 cell model, we verified the activity of gilteritinib to H3122 cell line that is EML4-ALK-positive NSCLC cells. […] Then, the inhibitory concentration of gilteritinib is matched between ALK phosphorylation and its downstream signals. […] Further, using the phosphoproteomics data, kinase substrate-enrichment analysis (KSEA) predicted activate kinase candidates as potential gilteritinib targets and identified ALK as the most likely regulated protein (Fig. 1e, Supplementary Figs. 3 and 4, and Supplementary Table 2).  Fig. 1 Identification of gilteritinib as an inhibitor of ALK-rearranged cancer cells. a Relative cell viability of parental (with IL-3), EML4-ALK wild-type (WT), EML4-ALK I1171N + F1174I, and EML4-ALK I1171N + L1198H Ba/F3 cells treated with 50 nM of the indicated inhibitors. Cell viability was analyzed using the CellTiter-Glo assay and calculated relative to the viability of dimethyl sulfoxide-treated Ba/F3 cells. b The suppression of phospho-ALK in I1171N + F1174I, I1171N + L1198H mutation-expressing Ba/F3 cells was evaluated using western blotting. Cells were treated with the indicated concentrations of gilteritinib for 3 h (n = 2). c The suppression of phospho-ALK and its downstream signals in H3122 parental cells and I1171N + F1174I compound mutation-expressing cells were evaluated using western blotting. […] N = 3 independent samples examined over three independent experiments and representative experiment data are presented as mean values ± SD. e Volcano plot displaying the −log10 (p-value) versus log2 (gilteritinib treatment/DMSO treatment) for all quantified phosphopeptides. The red diamond indicates phospho-ALK.

Row | SMILES | IC50 (EML4-ALK WT) [µM] | CC50 at 72 h (in vitro) [µM]
1 | CN1CCN(c2ccc(C(=O)Nc3n[nH]c4ccc(Cc5cc(F)cc(F)c5)cc34)c(NC3CCOCC3)c2)CC1 [Entrectinib] | 0.019 ± 0.01 | 0.481 ± 0.089
2 | C[C@H]1Oc2cc(cnc2N)-c2c(nn(C)c2C#N)CN(C)C(=O)c2ccc(F)cc21 [lorlatinib] | […] | 8.24 ± 2.41
3 | CCc1nc(C(N)=O)c(Nc2ccc(N3CCC(N4CCN(C)CC4)CC3)c(OC)c2)nc1NC1CCOCC1 [gilteritinib] | 0.00078 ± 0.00027 | 0.177 ± 0.0049
